Source: US8222187B2, “Method for improving the phytoremediation of polluted sites by providing plants with exogenous carbohydrates” (Universite de Rennes 1, priority 2003, dated 2012)

How the values were obtained:
Arabidopsis thaliana [1] = assay: Length of the primary roots of Arabidopsis thaliana after 15 days of culture on agar medium; format: in vivo
Procedure: (§1) Arabidopsis thaliana seeds (Wassilewskija ecotype) were sterilised at the surface according to the standard protocol and then rinsed with absolute ethanol and dried for one night.
(§2) These seeds were cultivated in Petri dishes on a culture medium of Murashige and Skoog (adjusted to a pH of 5.7) containing agar (0.8%). The Petri dishes were stored for 48 h at 4° C. then transferred to 22° C. under a photoperiod of 16 hours per day at 4500 lux. The sucrose and glucose were added to the culture medium, while no sugar was added for the controls.
(§3) A growth parameter (length of the primary roots) and the pigment levels (chlorophylls and carotenoids) were measured after 15 days of culture. The atrazine levels in the plants were also measured after one month of culture.

Arabidopsis thaliana [2] = assay: Photosynthetic pigment levels (chlorophylls and carotenoids) after 15 days of culture; format: in vivo
Procedure: as §1, §2, §3
The photosynthetic pigments (chlorophylls and carotenoids) were extracted by grinding the aerial portions of the plants in 80% acetone and by measuring the absorbance of the extracts corresponding to 663 nm, 646 nm and 470 nm. The levels of these pigments were expressed in μg/mL and determined according to the method of Lichtenthaler et al. (1983 Biochem. Soc. Trans. 11, 591-592).

[3] = tested on: D1 protein of photosystem II; assay: D1 protein levels by Dot Blot and Western Blot; format: in vivo, Arabidopsis thaliana
Procedure: In another experiment series, Arabidopsis thaliana plants were cultivated in the culture medium described above in the absence of sucrose and in the presence of 10 mM and 80 mM of sucrose, and in the absence of atrazine and in the presence of 0.25 μM and 1 μM of atrazine. To measure the levels of D1 protein (31-kD monomer and 21.5-kD by-products), the membrane proteins of the plants were isolated according to the method of Pilgrim et al. (1998 Plant. J. 13 2-77-186). The levels of the total concentration of the target protein, D1 protein of photosystem II, were measured by Dot Blot analysis. Then, the different forms were analysed by gel electrophoresis separation under denaturing and Western Blot conditions.

superoxide ion = assay: Superoxide ion production of the plants; format: in vivo, Arabidopsis thaliana; settings: 10 mM sucrose
Procedure: In addition, the superoxide ion production of the plants was tested according to the method of Fryer et al. (2002 Imaging of photo-oxidative stress responses in leaves—J. Exp. Bot. 53: 1249-1254).

photosystem II = biological target: T1, photosystem II (Arabidopsis thaliana, UniProt P83755); assay: Activity of photosystem II monitored by chlorophyll fluorescence; format: in vivo; settings: increasing sucrose (10 mM, 80 mM), atrazine 0.25 μM and 1 μM (lethal or sublethal doses without sucrose)
T1 construct: from tissue; host or cells: whole Arabidopsis thaliana plants grown on culture medium
Procedure: In another experiment series, Arabidopsis thaliana plants were cultivated in the culture medium described above in the absence of sucrose and in the presence of 10 mM and 80 mM of sucrose, and in the absence of atrazine and in the presence of 0.25 μM and 1 μM of atrazine. […] The activity of photosystem II is monitored by measuring the fluorescence of the chlorophylls.

Arabidopsis thaliana [4] = assay: Arabidopsis culture on humus contaminated with atrazine; format: in vivo; settings: humus with 10 μM atrazine; sucrose applied to the surface as a 3% solution
Procedure: Atrazine concentrations were also measured in the plants and the culture medium using conventional methods of extraction with solvents and high-performance liquid chromatography analysis with UV detection. The atrazine was extracted in a methanol and water mixture (4:1, v/v). After centrifugation, the supernatants were filtered on filters of 0.45 μm and the organic solvents were evaporated at 40° C. SPE cartridges were activated by washing with 5 mL or methanol then 5 mL of water. Each sample was applied to a column and the columns were then washed. The atrazine was eluted with 2 mL of dichloromethane. The organic solvents were then evaporated and the dry residues were dissolved in 500 μL of a methanol and water mixture (1:1). The samples were then analysed by HPLC with UV detection. In additional experiments, Arabidopsis thaliana was also cultivated on a humus contaminated at a concentration of 10 μM of atrazine in the absence of sucrose and in the presence of sucrose applied to the surface in the form of a 3% solution. The cultures obtained are shown in FIG. 11, in which the left-hand container corresponds to the culture in the presence of sucrose and the right-hand container corresponds to the culture in the absence of sucrose.

[5] = absence of sugars in the culture medium

SMILES	effect on the length of the primary roots (Arabidopsis thaliana [1]; 1 to 10 μM atrazine, in the presence of 80 mM sucrose or 80 mM glucose)	IC50 (Arabidopsis thaliana [1]; Arabidopsis thaliana, absence of sugars in the culture medium, hyperbolic regression curve (R^2=0.93), read-out: I50 for the atrazine inhibition of primary root length) [nM]	concentration at which inhibition of root development is complete, with discolouring and death of the plants (Arabidopsis thaliana [1]; [5]) [nM]	effect on root growth (Arabidopsis thaliana [1]; atrazine concentrations higher than 10 μM, in the presence of 80 mM sucrose or 80 mM glucose)	concentration at which chlorophylls and carotenoids disappear completely (Arabidopsis thaliana [2]; [5]) [nM]	effect on levels of chlorophylls and carotenoids in the leaves (Arabidopsis thaliana [2]; in the presence of 80 mM sucrose or 80 mM glucose)	effect on D1 protein (Dot Blot, all D1 proteins) ([3]; 1 μM atrazine, plants not cultivated in the presence of sucrose)	effect on superoxide ion production (superoxide ion; increasing atrazine levels)	increase in root growth at higher atrazine concentrations, sucrose compared with glucose (Arabidopsis thaliana [1]; 80 mM sugar)	effect on activity of photosystem II (photosystem II)	effect on D1 protein and by-products (Western Blot) ([3]; 10 mM sucrose, 1 μM atrazine)	effect on D1 protein and by-products (Western Blot) ([3]; 80 mM sucrose, 1 μM atrazine)	effect on monomer of the D1 protein (Western Blot) ([3]; 80 mM sucrose, atrazine concentrations at which the monomer disappears without sucrose)	effect on D1 protein (Western Blot) ([3]; high sucrose concentrations, absence of atrazine)	effect on D1 protein and by-products (Western Blot) ([3]; sucrose in the culture medium, 0.25 μM atrazine)	effect of sucrose on production of active oxygen species such as the superoxide ion (superoxide ion; in the presence of atrazine)	seedlings on contaminated humus with sucrose compared with no sucrose (Arabidopsis thaliana [4])
CCNc1nc(Cl)nc(NC(C)C)n1 [atrazine, 2-chloro-4-ethylamino-6-isopropylamine-1,3,5-triazine]	inhibiting but non-lethal effect	120	500	paradoxically enable the root growth to improve	500	the production of these pigments is not suppressed	causes the disappearance of the D1 protein	appears to increase in the presence of atrazine	–	–	–	–	–	–	–	–	–
OC[C@H]1O[C@@](CO)(O[C@H]2O[C@H](CO)[C@@H](O)[C@H](O)[C@H]2O)[C@@H](O)[C@@H]1O [sucrose]	–	–	–	–	–	–	–	–	greater in the presence of sucrose than in the presence of glucose	contribute to maintaining the activity of photosystem II	The same effect was observed	causes a decrease in the D1 protein	maintain a sufficient amount of monomer of the D1 protein	decrease in D1 protein production	greater accumulation of the D1 protein and its by-products	does not prevent the production	more numerous and larger
